Experiments:
[1] = tested on: NF-κB p50 and p65; test: NF-κB activity in monocytes (ELISA-based assay); type: cell-based, human; details: P5 100 ng/mL, 24 hours
Procedure: Monocytes were cultured for 24 hours in the presence of E. coli LPS (O111:B4, 1 μg/mL), anti-TREM-1 mAb (10 μg/mL) and/or P5 (100 ng/mL) as indicated and the levels of NFκB p50 and p65 were determined using an ELISA-based assay. Experiments were performed in triplicate and data are expressed as means of optical densities (SEM).
In order to activate monocytes through TREM-1, an anti-TREM-1 agonist monoclonal antibody (R&D Systems) was added as follows: flat-bottom plates were precoated with 10 μg/mL anti-TREM-1 per well. After thorough washing in phosphate buffered saline (PBS), the monocyte suspensions were added at a similar concentration as above. Some experiments were performed in the presence of protease inhibitors (PMSF and Protease Cocktail Inhibitor; Invitrogen). Cell-free supernatants were assayed for the production of TNF-α and IL-1β by ELISA according to the recommendations of the manufacturer (BD Biosciences, San Diego, USA). To address the effect of P5 on NF-κB activity in monocytes, an ELISA-based assay was performed (BD Mercury™ Transfactor Kit, BD Biosciences). […] Whole-cell extracts were then prepared and levels of NF-κB p50 and p65 were determined according to the recommendations of the manufacturer. All experiments were performed in triplicate and data are expressed as means (SEM). Identification and Quantitation of sTREM-1 Release

[2] = tested on: BALB/c mice; test: CLP polymicrobial sepsis model in mice (Example 3); type: in vivo, mouse; details: for Serum IL-1β / Serum TNF-α / Serum sTREM-1: 24 hours after CLP
Procedure: Male Balb/C mice (20 to 23 g) were randomly grouped and treated with normal saline (n=14) or the control peptide (n=14, 100 μg) or with P5 (100 μg) in a single infection at HO (n=18), H+4 (n=18) or H+24 (n=18). The last group of mice (n=18) was treated with repeated injections of P5 (100 μg) at H+4, H+8 and H+24.
Mice (n=15 per group) were treated with a single injection of normal saline or 10 μg, 20 μg, 50 μg, 100 μg or 200 μg of P5 at HO after the CLP and monitored for survival.
Mice (5 per group) were killed under anaesthesia at 24 hours after CLP. Bacterial counts in peritoneal lavage fluid and blood were determined and results are expressed as CFU per mL of blood and CFU per mouse for the peritoneal lavage.
Male Balb/C mice (7 to 9 weeks, 20 to 23 g) were anaesthetized by i.p. administration of ketamine and xylazine in 0.2 mL sterile pyrogen-free saline. The caecum was exposed through a 1.0 cm abdominal midline incision and subjected to a ligation of the distal half followed by two punctures with a G21 needle. A small amount of stool was expelled from the punctures to ensure patency. The caecum was replaced into the peritoneal cavity and the abdominal incision closed in two layers. After surgery all mice were injected s.c. with 0.5 ml of physiologic saline solution for fluid resuscitation and s.c. every 12 h with 1.25 mg (i.e. 50 μg/g) of imipenem. The animals were randomly grouped and treated with normal saline (n=14), the control peptide (n=14, 100 μg) or P5 (100 μg) in a single injection at HO (n=18), H+4 (n=18) or H+24 (n=18). The last group of mice (n=18) was treated with repeated injections of P5 (100 μg) at H+4, H+8 and H+24. All treatments were diluted into 500 μl of normal saline and administered i.p. The Inventors next sought to determine the effect of various doses of P5. For this purpose, mice (n=15 per group) were treated with a single injection of normal saline or 10 μg, 20 μg, 50 μg 100 μg or 200 μg of P5 at HO after the CLP and monitored for survival. Five additional animals per group were killed under anaesthesia 24 hours after CLP for the determination of bacterial count and cytokines levels. Peritoneal lavage fluid was obtained using 2 mL RPMI 1640 (Life Technologies) and blood was collected by cardiac puncture. Concentrations of TNF-α and IL-1β in the serum were determined by ELISA (BD Biosciences). For the assessment of bacterial counts, blood and peritoneal lavage fluid were plated in serial log dilutions on tryptic soy supplemented with 5% sheep blood agar plates. After plating, tryptic soy agar plates were incubated at 37° C. aerobically for 24 hours, and anaerobically for 48 hours. Results are expressed as CFU per mL of blood and CFU per mouse for the peritoneal lavage.

## LQVTDSGLYRCVIYHPP [P5]
[1]; LPS 1 μg/mL
  effect of LPS on NF-κB activation: did not alter
[1]; anti-TREM-1 mAb 10 μg/mL
  NF-κB activation induced by the engagement of TREM-1: inhibited
[2]; 100 μg at H+4, H+8 and H+24 after CLP
  effect on survival of repeated injections: more favourable effect on survival
[2]; 10 μg at H0
  Serum IL-1β: 356 ± 62 pg/mL
  Serum TNF-α: 110 ± 11 pg/mL
  Serum sTREM-1: 43 ± 8 ng/mL
[2]; 20 μg at H0
  Serum IL-1β: 324 ± 58 pg/mL
  Serum TNF-α: 89 ± 10 pg/mL
  Serum sTREM-1: 58 ± 8 ng/mL
[2]; 50 μg at H0
  Serum IL-1β: 57 ± 11 pg/mL
  Serum TNF-α: 24 ± 6 pg/mL
  Serum sTREM-1: 93 ± 10 ng/mL
[2]; 100 μg at H0
  Serum IL-1β: 31 ± 3 pg/mL
  Serum TNF-α: 20 ± 3 pg/mL
  Serum sTREM-1: 118 ± 12 ng/mL
[2]; 200 μg at H0
  Serum IL-1β: 37 ± 8 pg/mL
  Serum TNF-α: 21 ± 7 pg/mL
  Serum sTREM-1: 158 ± 13 ng/mL

From patent US10603357B2, “Therapeutic TREM-1 peptides” (Universite de Lorraine, priority 2004, dated 2020)
